Assay [1] deals with formalin-induced nociception in mice. The experiment in a line: Formalin test. It is filed as in vivo.
For assay [2], the system named is acetic acid-induced writhing in Kunming mice. The experiment in a line: Acetic acid-induced writhing test. It is filed as in vivo. Conditions: for ED50: Mus musculus, read-out: ED50 (median effective dose); for effect of NAL on the reduction of writhing number: absence vs presence of NAL 5 mg/kg i.p., MOP 1, IND 10, ASA 100, DB 5, DBDS 5 mg/kg, Figure 4; for fold weaker than DBDS (ED50): writhing test, ED50 compared with DBDS. (In general: In writhing tests, fewer writhes than in controls are read as antinociception.)

The test system of assay [3] is hot plate-induced nociception in mice. The experiment in a line: Eddy's hot plate test. It is filed as in vivo. The method, then: Female Kunming mice (20 ± 2 g) from Chengdu Dossy Experiment Animal Co., Ltd. (Sichuan, China) were used for antinociceptive experiments. These animals were kept under a constant temperature (23 ± 1 °C), humidity (40–70%), airflow speed ([…]) and noise (≤ 60 db), and maintained under a 12 h light-dark cycle. After the experiment is completed, mice were euthanized humanely. All the animal experiments were approved by the Institutional Animal Care and Use Committee of Yunnan Minzu University (permit no. 20200608).
This was performed according to a previously reported procedure (Eddy and Leimbach [1953]). The pain threshold was defined as the duration from the beginning of placing mice on the plate to the mice jumping, licking, or shaking its paws. Because the scrotum of male mice is saggy, which can be stimulated by hot plate, healthy female mice with pain threshold less than 20 s were used for hot plate test. […] After administration of the test compounds, the pain threshold was recorded at 0, 30, 60, 90, and 120 min. Among the tests in the absence and presence of NAL (5 mg/kg), i.p. injection of NAL was performed 10 min before administration of testing compounds. […]
For orientation: In hot-plate and tail-flick tests a longer latency is read as antinociception.

The test system of assay [4] is NO production. As to the kind of experiment: cells. Format: cell-based. The following applies: Mus musculus, RAW264.7; 25 µmol/L (positive control); LPS-stimulated, 24 h.
The target of assay [5] is Nav1.2 (Homo sapiens, UniProt Q99250). Format: cell-based.
For assay [6], the target named is TRPV1 channel (Homo sapiens, UniProt Q8NER1). As to the kind of experiment: cell-based. Format: cell-based.
[7] abbreviates: formalin test, absence vs presence of NAL 5 mg/kg i.p., MOP 1, IND 10, ASA 100, DB 20, DBDS 20 mg/kg, Figure 5.
Setting [8] is: hot plate test, absence vs presence of NAL 5 mg/kg i.p.

Values joined by “and” are separate entries in the source; they are usually repeats but may differ in a detail not shown here. Equal entries are not always repeated.

TRPV1 channel, sequence (Q8NER1 whole entry): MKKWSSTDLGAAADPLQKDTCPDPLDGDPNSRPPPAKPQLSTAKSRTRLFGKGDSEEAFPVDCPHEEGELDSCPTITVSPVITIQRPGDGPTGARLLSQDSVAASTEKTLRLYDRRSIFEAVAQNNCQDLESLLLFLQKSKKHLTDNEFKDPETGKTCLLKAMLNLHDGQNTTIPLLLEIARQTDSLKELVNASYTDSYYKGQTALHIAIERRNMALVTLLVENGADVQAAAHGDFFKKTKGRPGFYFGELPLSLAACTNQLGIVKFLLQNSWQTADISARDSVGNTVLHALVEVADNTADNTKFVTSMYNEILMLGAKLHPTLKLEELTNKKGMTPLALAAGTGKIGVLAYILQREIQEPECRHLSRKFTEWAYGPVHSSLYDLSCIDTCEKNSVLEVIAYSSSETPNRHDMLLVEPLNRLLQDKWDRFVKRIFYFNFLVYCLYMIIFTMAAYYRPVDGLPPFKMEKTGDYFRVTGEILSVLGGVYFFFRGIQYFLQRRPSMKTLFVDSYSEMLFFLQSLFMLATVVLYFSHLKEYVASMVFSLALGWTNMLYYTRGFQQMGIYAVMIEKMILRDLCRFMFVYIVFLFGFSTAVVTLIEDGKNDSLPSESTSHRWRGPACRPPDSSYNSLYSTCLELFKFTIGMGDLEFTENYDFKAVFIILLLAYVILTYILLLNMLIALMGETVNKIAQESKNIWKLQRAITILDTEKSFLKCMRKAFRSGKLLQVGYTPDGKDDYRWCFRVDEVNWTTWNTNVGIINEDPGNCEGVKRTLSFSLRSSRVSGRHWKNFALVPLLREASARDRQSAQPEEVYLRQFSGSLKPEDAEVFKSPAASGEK
Nav1.2, sequence (Q99250 whole entry): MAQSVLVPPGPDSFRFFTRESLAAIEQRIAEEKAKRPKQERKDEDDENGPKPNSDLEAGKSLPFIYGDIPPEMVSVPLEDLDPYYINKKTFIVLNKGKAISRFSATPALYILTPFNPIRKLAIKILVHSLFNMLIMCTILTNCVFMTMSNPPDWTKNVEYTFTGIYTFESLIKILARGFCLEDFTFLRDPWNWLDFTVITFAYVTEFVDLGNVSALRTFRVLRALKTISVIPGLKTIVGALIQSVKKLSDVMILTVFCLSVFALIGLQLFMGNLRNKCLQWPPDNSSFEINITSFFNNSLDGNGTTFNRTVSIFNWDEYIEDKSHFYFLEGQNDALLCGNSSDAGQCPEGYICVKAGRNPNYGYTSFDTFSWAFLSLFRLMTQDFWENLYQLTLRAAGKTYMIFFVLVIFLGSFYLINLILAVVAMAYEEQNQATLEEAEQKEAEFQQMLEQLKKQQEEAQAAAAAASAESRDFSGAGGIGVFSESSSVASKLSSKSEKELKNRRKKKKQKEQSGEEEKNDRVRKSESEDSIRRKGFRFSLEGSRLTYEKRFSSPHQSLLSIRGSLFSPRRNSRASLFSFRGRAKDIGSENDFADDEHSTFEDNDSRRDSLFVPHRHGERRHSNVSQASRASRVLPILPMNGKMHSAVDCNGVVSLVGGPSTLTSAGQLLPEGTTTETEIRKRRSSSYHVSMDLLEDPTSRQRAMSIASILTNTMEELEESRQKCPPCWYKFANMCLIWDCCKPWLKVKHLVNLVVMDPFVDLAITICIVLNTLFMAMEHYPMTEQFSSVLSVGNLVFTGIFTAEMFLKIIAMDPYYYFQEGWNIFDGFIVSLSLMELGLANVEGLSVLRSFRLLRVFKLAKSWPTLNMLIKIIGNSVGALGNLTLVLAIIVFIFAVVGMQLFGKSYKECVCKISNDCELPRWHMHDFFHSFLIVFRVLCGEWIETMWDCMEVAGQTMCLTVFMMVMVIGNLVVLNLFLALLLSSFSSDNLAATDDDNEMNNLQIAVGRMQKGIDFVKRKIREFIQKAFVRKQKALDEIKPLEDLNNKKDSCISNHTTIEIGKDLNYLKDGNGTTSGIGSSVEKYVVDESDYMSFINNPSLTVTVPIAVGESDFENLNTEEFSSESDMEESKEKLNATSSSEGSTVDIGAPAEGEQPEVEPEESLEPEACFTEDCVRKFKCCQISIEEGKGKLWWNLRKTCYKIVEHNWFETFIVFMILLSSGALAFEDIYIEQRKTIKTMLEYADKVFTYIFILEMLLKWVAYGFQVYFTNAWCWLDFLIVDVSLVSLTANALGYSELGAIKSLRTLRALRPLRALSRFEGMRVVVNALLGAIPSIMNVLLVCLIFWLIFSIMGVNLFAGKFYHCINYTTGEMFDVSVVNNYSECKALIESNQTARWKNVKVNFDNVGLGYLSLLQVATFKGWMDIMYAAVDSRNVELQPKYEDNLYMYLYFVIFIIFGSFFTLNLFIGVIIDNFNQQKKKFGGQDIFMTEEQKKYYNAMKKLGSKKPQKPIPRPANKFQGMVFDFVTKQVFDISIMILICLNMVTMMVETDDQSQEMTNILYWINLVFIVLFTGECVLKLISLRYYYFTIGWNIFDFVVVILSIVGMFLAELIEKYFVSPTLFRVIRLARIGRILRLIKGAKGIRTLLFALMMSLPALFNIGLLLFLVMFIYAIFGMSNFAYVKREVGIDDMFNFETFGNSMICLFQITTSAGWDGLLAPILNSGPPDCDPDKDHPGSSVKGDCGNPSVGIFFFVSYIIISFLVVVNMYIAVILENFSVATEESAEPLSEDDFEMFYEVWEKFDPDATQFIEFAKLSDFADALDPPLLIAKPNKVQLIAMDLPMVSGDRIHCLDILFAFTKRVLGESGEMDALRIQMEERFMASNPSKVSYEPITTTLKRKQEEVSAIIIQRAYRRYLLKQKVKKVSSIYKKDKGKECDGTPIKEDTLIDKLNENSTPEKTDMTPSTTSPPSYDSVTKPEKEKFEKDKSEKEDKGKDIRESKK

In the case of `CC(=O)Oc1ccccc1C(=O)O` [ASA, Acetylsalicylic acid], the “effect of NAL on the antinociceptive effect” value in assay [1] (setting [7]) and in assay [3] (setting [8]) was “not effectively removed by NAL” in each case. Besides, the “inhibition of licking time” value in assay [1] (late phase (15-30 min), 100 mg/kg i.g.) was found to be 64.8%. In addition, the “inhibition of writhing number” value came to 61.2% in assay [2] (100 mg/kg oral, Figure 1(A) experiment) and 73.3% in assay [2] (200 mg/kg, dose-response Figure 1(E)). The ED50 in assay [2] (writhing test in mice) is 70.1 mg/kg. Further, in assay [2], the “effect of NAL on the reduction of writhing number” value is “Only a minor difference”. Besides, the Pain threshold stood at 20.3 ± 5.9 s in assay [3] (100 mg/kg, absence of NAL, 30 min, Table 2); 19.8 ± 3.2 s in assay [3] (100 mg/kg, absence of NAL, 60 min, Table 2); 14.1 ± 4.3 s in assay [3] (100 mg/kg, absence of NAL, 90 min, Table 2); 18.6 ± 5.2 s in assay [3] (100 mg/kg, 30 min, Table 1); 17.8 ± 3.3 s in assay [3] (100 mg/kg, 60 min, Table 1); 12.9 ± 4.0 s in assay [3] (100 mg/kg, 90 min, Table 1). Moreover, the Pain threshold in assay [3] (100 mg/kg, 120 min, Table 1) amounted to 10.6 ± 2.8 s.

`COc1ccc2c(c1)c(CC(=O)O)c(C)n2C(=O)c1ccc(Cl)cc1` [IND, indomethacin]: the “effect of NAL on the antinociceptive effect” value in assay [1] (setting [7]) and in assay [3] (setting [8]) was “not effectively removed by NAL” in each case. In addition, in assay [1] (late phase (15-30 min), 10 mg/kg i.g.), the “inhibition of licking time” value is on record as 57.3%. The “inhibition of writhing number” value turned out to be 58.7% in assay [2] (10 mg/kg oral, Figure 1(A) experiment) and 76.1% in assay [2] (20 mg/kg, dose-response Figure 1(D)). Further, in assay [2] (writhing test in mice), the ED50 was found to be 5.91 mg/kg. In addition, in assay [2], the “effect of NAL on the reduction of writhing number” value is given as “Only a minor difference”. Besides, the “fold weaker than DBDS (ED50)” value in assay [2] was “approximately 5 fold”. The Pain threshold in assay [3] (10 mg/kg, absence of NAL, 0 min, Table 2) is on record as 12.1 ± 2.9 s; in assay [3] (10 mg/kg, absence of NAL, 30 min, Table 2), 11.7 ± 3.0 s; in assay [3] (10 mg/kg, absence of NAL, 60 min, Table 2), 11.6 ± 2.2 s; in assay [3] (10 mg/kg, absence of NAL, 90 min, Table 2) it was 10.7 ± 2.1 s; in assay [3] (10 mg/kg, absence of NAL, 120 min, Table 2), 12.0 ± 3.2 s; in assay [3] (10 mg/kg, 0 min, Table 1) it was 11.3 ± 2.8 s. Besides, the Pain threshold is 11.7 ± 3.4 s in assay [3] (10 mg/kg, 30 min, Table 1); 12.5 ± 3.0 s in assay [3] (10 mg/kg, 60 min, Table 1); 12.1 ± 2.9 s in assay [3] (10 mg/kg, 90 min, Table 1); 10.9 ± 2.9 s in assay [3] (10 mg/kg, 120 min, Table 1).

On to `[H]/N=C(/NC)NCCC[C@H](N)C(=O)O` [L-NMMA, NG-Monomethyl-L-arginine acetate], for which testing at 25 µM in assay [4] gave an inhibition of 73%.

Turning to `CN1CC[C@]23c4c5ccc(O)c4O[C@H]2[C@@H](O)C=C[C@H]3[C@H]1C5` [MOP, morphine], the “effect of NAL on the antinociceptive effect” value in assay [1] (mouse, in vivo) was “removed by NAL”; in assay [3] (mouse, in vivo) it was “removed by NAL”. Besides, the “inhibition of licking time” value in assay [1] (mouse, in vivo, ip, 1 mg/kg) was 55.3% and 75.9%.

The molecule `NC1=N[C@H](O)[C@H]2[C@H]3O[C@]4(O)O[C@@H]([C@@H](O)[C@@]2(N1)[C@@H]4O)[C@]3(O)CO` [TTX, Tetrodotoxin] came in with an IC50 in assay [5] of 0.016 ± 0.015 µM.

With `COc1cc(CNC(=O)CCCC/C=C/C(C)C)ccc1O` [capsaicin], the “direct effect on TRPV1 activity (compound alone)” value in assay [6] (compound alone) is listed as “induced a significant activation”.

In assay [6] (TRPV1 inhibitor control), `Oc1cc2c(cc1O)CN(C(=S)NCCc1ccc(Cl)cc1)CCC2` [capsazepine] had an IC50 of 7.3 ± 0.06 µM.

doliroside B [DB]: the “effect of NAL on the antinociceptive effect” value in assay [1] (setting [7]) and in assay [3] (setting [8]) was “not effectively removed by NAL” throughout. Also, the “inhibition of writhing number” value in assay [2] (5 mg/kg oral, dose-response Figure 1(B-D)) stood at 58.7%. For the same molecule, in assay [2], the “effect of NAL on the reduction of writhing number” value is “Only a minor difference”. In addition, the “ED50 (median effective dose)” value in assay [2] (writhing test in mice) is 4.68 mg/kg. For the same molecule, in assay [2], the “fold weaker than DBDS (ED50)” value was approximately 4 fold. The Pain threshold turned out to be 12.0 ± 4.4 s in assay [3] (2.5 mg/kg, 0 min, Table 1); 12.1 ± 3.7 s in assay [3] (2.5 mg/kg, 30 min, Table 1); 12.7 ± 4.4 s in assay [3] (2.5 mg/kg, 60 min, Table 1); 14.2 ± 4.7 s in assay [3] (2.5 mg/kg, 90 min, Table 1); 12.4 ± 3.4 s in assay [3] (2.5 mg/kg, 120 min, Table 1); 11.4 ± 2.9 s in assay [3] (5 mg/kg, 0 min, Table 1). Also, the Pain threshold in assay [3] (5 mg/kg, 30 min, Table 1) turned out to be 12.0 ± 3.4 s; in assay [3] (5 mg/kg, 60 min, Table 1), 10.2 ± 2.9 s; in assay [3] (5 mg/kg, 90 min, Table 1), 12.6 ± 3.6 s; in assay [3] (5 mg/kg, 120 min, Table 1), 10.9 ± 3.7 s; in assay [3] (10 mg/kg, 0 min, Table 1) it was 10.4 ± 3.0 s; in assay [3] (10 mg/kg, 30 min, Table 1), 14.6 ± 4.9 s. In addition, the Pain threshold in assay [3] (10 mg/kg, 60 min, Table 1) is reported as 16.4 ± 6.2 s; in assay [3] (10 mg/kg, 90 min, Table 1) it was 15.6 ± 4.2 s; in assay [3] (10 mg/kg, 120 min, Table 1), 12.6 ± 3.7 s; in assay [3] (20 mg/kg, absence of NAL, 0 min, Table 2) it was 11.8 ± 3.3 s; in assay [3] (20 mg/kg, absence of NAL, 30 min, Table 2), 19.6 ± 4.2 s; in assay [3] (20 mg/kg, absence of NAL, 60 min, Table 2), 21.7 ± 5.9 s. Also, the Pain threshold in assay [3] (20 mg/kg, absence of NAL, 90 min, Table 2) was found to be 18.0 ± 5.6 s; in assay [3] (20 mg/kg, absence of NAL, 120 min, Table 2) it was 15.2 ± 4.6 s; in assay [3] (20 mg/kg, 0 min, Table 1), 11.8 ± 3.3 s; in assay [3] (20 mg/kg, 30 min, Table 1), 18.8 ± 3.6 s; in assay [3] (20 mg/kg, 60 min, Table 1) it was 19.7 ± 5.3 s; in assay [3] (20 mg/kg, 90 min, Table 1) it was 18.1 ± 6.3 s. This molecule had a Pain threshold in assay [3] (20 mg/kg, 120 min, Table 1) of 13.8 ± 4.2 s.

What is called ED50 is the dose at which the effect has come halfway, by size or by number of responders. What is called inhibition is how much of the control response was suppressed. Usually IC50 stands for the point on the concentration scale where inhibition reaches its midpoint. A high value points to weaker potency in that assay.

These data come from PMC9848282, “Antinociceptive activity of doliroside B” (Pharmaceutical Biology, 2023).
